Measurements from PubChem BioAssay AID179 (DTP/NCI, 2004).
The source made the active and inactive calls.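 Rule for the calls: active = compounds giving half or more protection of infected cells from virus-caused growth loss, again on retest; inactive = the rest.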

System: CEM cells HIV-1 protection, formazan growth assay
Experiment: NCI AIDS Antiviral Assay
Conditions: for IC50: measured here: growth of uninfected CEM cells
Summary of the method: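 Steps: treat uninfected and HIV-1-infected human CEM cells at five drug levels; quantify growth by soluble formazan; retest any compound reaching 50% protection; classify actives from the retest.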

With Cc1ccc2c(c1)C(=O)/C(=C\c1ccc(Cl)cc1)CCS2(=O)=O the EC50 was over 200 µM and the IC50 was 1.66 µM.
CCCc1nc(NC#N)nc(C(=O)NC23CC4CC(CC(C4)C2)C3)c1C gave an EC50 of over 355 µM and an IC50 of over 355 µM.
Compound CC(=O)OC1CC2CCC3C(CCC4(C)C3CC([N+]3(C)CCCCC3)C4OC(C)=O)C2(C)CC1[N+]1(C)CCCCC1 (stereo not given) has an EC50 of over 200 µM and an IC50 of over 200 µM.
Compound COc1ccc(C(C(N)=O)N2CCCCC2)cc1 (stereo not given) has an EC50 of over 200 µM and an IC50 of over 200 µM.
Work on C[C@H](OCc1ccccc1)C(=O)N1CCS(=O)(=O)N2CCC[C@@H]2C1=O yielded an EC50 of over 490 µM and an IC50 of over 490 µM.
Compound O=c1[nH][nH]c(=O)n1Cc1ccccc1 has an EC50 of over 200 µM and an IC50 of over 200 µM.
CC/C=N\N1C(N)=C(C#N)C(C#N)(C#N)C1CC (stereo not given) was tested, and the EC50 was over 200 µM and the IC50 was 64.6 µM.
For CC(=O)Nc1ccc2c(c1)nc1c3ccccc3ccn21, the EC50 was over 200 µM and the IC50 was 29.5 µM.
In the case of Nc1ccc(S(=O)(=O)Nc2nc3ccccc3nc2Nc2ccc(S(N)(=O)=O)cc2)cc1, the EC50 is reported as over 200 µM and the IC50 is reported as 20.4 µM.
Compound CC1=CC(=O)C(=O)C2=C1OC1(C2)C(C)CCC2C3(C)CCC(O)C(C)(C)C3CCC21C (stereo not given) has an EC50 of over 100 µM and an IC50 of 47.9 µM.
In the case of O=C(CC(C(=O)c1ccco1)c1ccco1)c1ccco1 (stereo not given), the EC50 is reported as over 200 µM and the IC50 is reported as 145 µM.
CC1(C)OC(=O)CC(=O)O1 showed an EC50 of over 200 µM and an IC50 of over 200 µM.
Work on CCCCCCOc1ccc(C(=O)NOC)cc1 yielded an EC50 of over 200 µM and an IC50 of 110 µM.
CC(/C=N/N(C)C1=NCCCCN1)=N/N(C)C1=NCCCCN1 was tested, and the EC50 was over 200 µM and the IC50 was over 200 µM.
In the case of CN(C)c1ccc(-n2cccc2)cc1, the EC50 is reported as over 200 µM and the IC50 is reported as over 200 µM.
Compound Cc1cccc(C(=O)NCCN(C)C)c1[N+](=O)[O-] has an EC50 of over 200 µM and an IC50 of over 200 µM.
For CN(Cc1ccccc1)c1nc(=[N+](C)C)ss1, the outcome was “inactive”.
Work on NCCn1c(-c2ccccc2)nc2ccccc2c1=O yielded an EC50 of over 200 µM and an IC50 of 123 µM.
For CCN(CC)CCCCC1CCN(CC(=O)N2c3ccccc3NC(=O)c3ccccc32)CC1, the EC50 was over 282 µM and the IC50 was 158 µM.
For CNNC(=NS(=O)(=O)c1cc(C#N)c(NNC)cc1S)NNC, the outcome was “inactive”.
With C[C@]12C=CC(=O)C=C1CC[C@H]1[C@@H]3C[C@@H](O)[C@](O)(C(=O)CO)[C@@]3(C)C[C@H](O)[C@@]12F the outcome was “inactive”.
Compound COc1ccccc1/C=C/C(=O)c1ccccc1 has an EC50 of over 57.5 µM and an IC50 of 11.2 µM.
CN1C(=O)C(C)(O)c2ccccc21 (stereo not given) showed an EC50 of over 1410 µM and an IC50 of 550 µM.
Work on Cc1ccc(N=C[N-]c2ccc(C)cc2)cc1.Cc1ccc(N=C[N-]c2ccc(C)cc2)cc1.O=C([O-])C(F)(F)F.O=C([O-])C(F)(F)F.[OH3+].[OH3+].[Rh+2].[Rh+2] yielded an EC50 of over 14.1 µM and an IC50 of over 14.1 µM.
CC1CCC2(CO)C(CO)=CCCC2[C@@]1(C)CC/C(=C/CO)CO (stereo not given in full) was tested, and the outcome was “inactive”.
C/C=C(/C)C(=O)O[C@@H]1CCN2CC[C@H](COC(=O)/C(=C/C)CO)C12 (stereo not given in full) showed an EC50 of over 200 µM and an IC50 of 107 µM.
For CCN(CC)CCN1CCc2c([nH]c3ccccc23)C1c1cccnc1 (stereo not given), the EC50 was over 145 µM and the IC50 was over 145 µM.
c1ccc(-c2cc3ccc4cccnc4c3o2)cc1 was tested, and the EC50 was over 107 µM and the IC50 was 56.2 µM.
Compound CCSC(CCC(NC(C)=O)C(=O)O)SCC (stereo not given) has an EC50 of over 200 µM and an IC50 of over 200 µM.
Work on CCOC(=O)c1c[nH]c(C(=O)OCC)c1-c1cccn1-c1ccccc1 yielded an EC50 of over 200 µM and an IC50 of 24.5 µM.
CC(=O)c1cccc(NC(=O)Nc2ncccc2C)c1 showed an EC50 of 182 µM and an IC50 of over 200 µM.
C=C1OC2OC(C)C(NC(=O)OCC(Cl)(Cl)Cl)C(OC(C)=O)C2O1 (stereo not given) showed an EC50 of over 234 µM and an IC50 of over 234 µM.
CC(C)=CCC[C@@H](C)c1c(O)c(O)c(C)c2nc3ccccc3nc12 gave an EC50 of over 200 µM and an IC50 of 5.89 µM.
Oc1ccc(Nc2ccccc2)cc1 gave an EC50 of over 141 µM and an IC50 of 24.5 µM.
CP(C)(=S)P(C)(C)=S was tested, and the EC50 was over 200 µM and the IC50 was 110 µM.
CSc1nc2c(c(O)c(C)c(=O)n2C2OCC(OC(C)=O)C(OC(C)=O)C2OC(C)=O)c(=O)n1C (stereo not given) showed an EC50 of over 70.8 µM and an IC50 of over 70.8 µM.
Compound O=C(O)CCSC(=S)NCCNC(=S)SCCC(=O)O has an EC50 of over 708 µM and an IC50 of 437 µM.
